From PMC11249646, “Small-Molecule Disruptors of the Interaction between Calcium- and Integrin-Binding Protein 1 and Integrin αIIbβ3 as Novel Antiplatelet Agents” (ACS Pharmacology & Translational Science, 2024)
≈ marks a conversion by molar mass, not a printed value. Where “and” joins values, the source holds several entries; their conditions need not be identical. Equal entries are not always repeated. Where two headings read alike, the source gives them in different places. Primed or numbered codes have the meaning given here. Where no end group is shown, it is not given here. FITC″ = fluorescein isothiocyanate label; FITC′ = not defined here

B1: FITC-labeled αIIb peptide from the cytoplasmic domain of integrin αIIb (peptide)
peptide: Ac-LVLAMWKVGFFKRNRK-{FITC′}
notes: integrin αIIb, stretch at the start of the cytoplasmic domain; last printed residue of the peptide; The C-terminal K probably carries the FITC (surmised); also called F-αIIb; F-αIIb peptide; source: synthetic peptide (custom synthesized, Peptide 2.0, purity 95.83%)
B2: GST-tagged recombinant CIB1 (calcium- and integrin-binding protein 1) (natural protein)
chain: SKELLAEYQDLTFLTKQEILLAHRRFCELLPQEQRSVESSLRAQVPFEQILSLPELKANPFKERICRVFSTSPAKDSLSFEDFLDLLSVFSDTATPDIKSHYAFRIFDFDDDGTLNREDLSRLVNCLTGEGEDTRLSASEMKQLIDNILEESDIDRDGTINLSEFQHVISRSPDFASSFKIVL
notes: Printed molecular weight of GST-CIB1 is 48 kDa against 26 kDa for GST alone, which would fit whole CIB1 (surmised); Vector family pGEX-4T is named for the empty vector; also called GST-CIB1; CIB1-GST

How the values were obtained:
[1] = molecular target: T1, CIB1-(His)6 : F-αIIb peptide (Homo sapiens, UniProt Q99828); experiment: MST competitive binding study
T1 construct: made in house
T1 sequence (Q99828 1-191): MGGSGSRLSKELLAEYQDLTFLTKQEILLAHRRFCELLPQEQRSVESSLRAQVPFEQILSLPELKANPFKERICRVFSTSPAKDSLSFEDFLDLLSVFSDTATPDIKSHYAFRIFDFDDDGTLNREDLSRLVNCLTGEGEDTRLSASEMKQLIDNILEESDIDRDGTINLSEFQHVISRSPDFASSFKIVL
Description: We sought to resolve this discrepancy by performing a competition binding study similar to the conditions of the FP HTS assay by utilizing the F-αIIb probe.
Figure 4 MST competitive binding assay. We selected 200 nM F-αIIb and a CIB1 concentration of 4 μM and tested both compounds. […] Panel (B) highlights the concentration range in which we observe different activities between the two compounds.
The binding affinity of the compounds to the CIB1-(His)6 protein in the presence of αIIb peptide was evaluated using FITC-labeled αIIb as well. Following manufacturer’s recommendation,[66] we first determined a minimum concentration of F-αIIb by performing a titration of the fluorophore (1 μM, 1:2, 8-points; final concentration range of 7.8 nM to 1 μM) in a 10 μL assay volume. Solutions were placed in standard capillaries and evaluated for the fluorescent signal using the Monolith NT.115 instrument. […] CIB1-(His)6 protein was titrated in a 2-fold dilution series (16-points, final concentration range of 15 nM to 500 μM), at a final volume of 12.5 μL. An equal volume of [2×] […] Solutions were placed in standard capillaries, incubated for approximately 1 h, and evaluated for a fluorescent signal with 50% LED excitation power, 20, 40, or 60% MST power (low, medium, high, respectively), MST on-time of 30 s, and off-time of 5 s.
Compounds were titrated in a 2-fold dilution series (16 points, final concentration range of 6.1 nM to 200 μM) and mixed with an equal volume CIB1-(His)6 protein and F-αIIb peptide (final concentrations of 4 μM and 200 nM, respectively). Solutions were incubated for 1 h at RT, then placed in standard capillaries, and evaluated for fluorescent signal (in triplicate) at the following parameters: 50% LED excitation power, 40% MST power, MST on-time of 30 s, and off-time of 5 s using Monolith NT.115 instrument. Dissociation constant (Kd) values were calculated by fitting the thermophoresis signal at 20 s of the thermograph using the MO Affinity Analysis software (Nanotemper Technologies, Munich, Germany) and confirmed using Graphpad Prism 7.

CIB1-(His)6 = molecular target: T2, CIB1-(His)6 (Homo sapiens, UniProt Q99828); experiment: Microscale thermophoresis (MST) protein and small-molecule binding
T2 construct: made in house
T2 sequence (Q99828 1-191): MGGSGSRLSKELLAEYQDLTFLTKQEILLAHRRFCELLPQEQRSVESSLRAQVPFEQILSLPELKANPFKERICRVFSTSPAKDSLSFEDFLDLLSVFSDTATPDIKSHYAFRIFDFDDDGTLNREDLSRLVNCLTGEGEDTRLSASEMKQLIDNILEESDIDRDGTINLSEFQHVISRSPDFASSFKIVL
Description: Determining a direct measurement of a molecule’s binding interaction with its target is a vital parameter for characterizing a chemical probe. We employed microscale thermophoresis (MST) for this purpose, leveraging its sensitivity and capacity to deliver quantitative data on the binding interaction.[35] […] We began by testing increasing amounts of the compound(s) and incubating them with the fluorescently labeled CIB1-(His)6, followed by the detection of the MST traces on the NT automated instrument (for more details see Materials and Methods Section). […] We were able to rule out compound interference with the histidine tag on CIB1 and/or the fluorophore used for the MST assay by testing the compounds with a fluorescently labeled hexa-histidine peptide (Figure S8B).
The binding affinity of the compounds to the CIB1-(His)6 protein was evaluated using microscale thermophoresis (MST). The recombinant protein was labeled with a fluorophore using Monolith His-tag labeling RED-tris-NTA second Generation kit (Nanotemper Technologies, Munich, Germany) following the manufacturer’s protocol. Compounds were titrated in a 2-fold dilution series (16 points, final concentration range of 6.1 nM to 200 μM) and incubated with the same volume of 50 nM (final concentration; 25 nM RED-tris-NTA) labeled recombinant protein for 30 min at RT (20 μL final assay volume). […] The dissociation constant (Kd) values were calculated by fitting the thermophoresis signal at 20 s of the thermograph using the MO Affinity Analysis software (Nanotemper Technologies, Munich, Germany) and confirmed using GraphPad Prism.

[2] = In vitro ADME: solubility; assay type: physicochemical; conditions: read-out: Solubility
[3] = In vitro ADME: PAMPA permeability
[4] = molecular target: T3, CIB1 and αIIb interaction (CIB1-GST : F-αIIb peptide) (Homo sapiens, UniProt Q99828); experiment: FP assay, 1536-well qHTS format (primary and confirmatory screen); assay type: binding; conditions: over the concentration range tested
T3 construct: made in house; host or cells: BL-21 plus RIL cells (E. coli)
T3 sequence (Q99828 1-191): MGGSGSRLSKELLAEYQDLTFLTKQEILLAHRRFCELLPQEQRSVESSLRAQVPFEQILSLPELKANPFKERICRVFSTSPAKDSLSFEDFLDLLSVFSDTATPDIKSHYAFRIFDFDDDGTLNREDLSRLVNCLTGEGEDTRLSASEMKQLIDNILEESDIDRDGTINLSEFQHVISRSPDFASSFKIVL

washed human platelets = experiment: Human platelet aggregation assay (thrombin-induced); assay type: cell-based; conditions: for inhibition at 10 µM: Homo sapiens, Platelet, single concentration of 10 μM (n = 3), thrombin; for Thrombin Assay 10 µM (%): platelet aggregation inhibition at 10 µM
Excerpt: A classical challenge in target-based drug discovery is moving from biochemical to cellular assay and the essential step of determining if the compounds of interest can perform in a cellular context. After characterization of the compounds in a series of biochemical assay formats, our next step was to assess their activity in a cellular environment. Our previous studies have shown that the interaction of the cytoplasmic domain of integrin αIIbβ3, a key regulator of platelet aggregation, with CIB1, is involved in downstream signaling in platelet activation and aggregation. We sought to determine whether our candidate compounds were inhibiting this interaction by evaluating them for platelet function in a human platelet aggregation assay. We prepared platelet-rich plasma (PRP) and washed the platelets as previously described[44] and then performed a platelet aggregation assay using the washed platelet suspensions (2 × 10^8/platelets/mL) followed by the recording of aggregation traces (see Materials and Methods Section). To induce platelet aggregation, 0.03 U/mL of thrombin, a physiological agonist of platelet activation, was used.
Figure 6 Effect of compounds on human platelet activation. Representative platelet aggregation tracings of washed human platelet suspensions pretreated for 30 min at 37 °C with vehicle (DMSO) or compounds at indicated concentrations followed by activation with thrombin (0.03–0.1 U/mL). Panel (A): NCGC00071855. Panel (B–D): NCGC00351170. Panel (E): CD62P exposure was in the presence of NCGC00351170. Data represents mean ± SEM, n = 4 individual experiments; ns = non significant *P < 0.05, ***P < 0.001, ****P < 0.0001.
Whole blood was drawn by venipuncture from healthy adult volunteers (of both gender and race) with informed consent. Approval was obtained from the institutional review boards of Thomas Jefferson University, according to the Declaration of Helsinki. Blood was collected in acidified citrate dextrose as an anticoagulant. Platelet-rich plasma (PRP) and washed platelets were prepared, as previously described.[44] Platelet aggregation was performed using washed platelet suspensions containing 2 × 10^8 platelets/mL using a Chrono-Log Lumi-Aggregometer (Chrono-Log), as described previously.[11] Aggregation traces were recorded by using Aggrolink software (Chrono-Log). Thrombin-induced P-selectin (CD62P) exposure was performed using Accuri C6 flowcytometer (BD Bioscience) as described previously.[11]
Figure S9: Effect of compounds on human platelet activation. Representative platelet aggregation
tracings of washed human platelet suspensions treated with vehicle (DMSO) or indicated
compounds at 10 μM for 30 minutes at 37 °C followed by activation with thrombin (0.03U/mL).

[5] = In vitro ADME: RLM stability; conditions: rat liver microsomes; read-out: Rat Liver Microsome Stability (t1/2)
[6] = molecular target: T4, CIB1 and αIIb interaction (GST-CIB1 : F-αIIb peptide) (Homo sapiens, UniProt Q99828); experiment: FP assay, 384-well format (screen); assay type: binding
T4 construct: made in house; host or cells: BL-21 plus RIL cells (E. coli)
T4 sequence (Q99828 1-191): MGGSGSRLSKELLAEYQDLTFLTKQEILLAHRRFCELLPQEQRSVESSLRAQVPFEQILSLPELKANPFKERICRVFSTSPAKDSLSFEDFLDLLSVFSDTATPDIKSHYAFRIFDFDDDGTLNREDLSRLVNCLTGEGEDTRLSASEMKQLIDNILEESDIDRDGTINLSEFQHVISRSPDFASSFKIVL

[7] = molecular target: T4, CIB1 and αIIb interaction (GST-CIB1 : F-αIIb peptide); experiment: FP assay, 96-well format (assay development); assay type: binding; conditions: GST-CIB1 1 μM, F-αIIb peptide 100 nM, pre-incubated 1 h, read-out: half maximal inhibitory concentration (IC50)
CIB1-(His)6 protein = molecular target: T5, CIB1-(His)6 protein (UniProt Q99828 9-191); experiment: MST; 200 nM F-αIIb with CIB1-(His)6 titrated 15 nM to 500 μM (16 points); about 1 h; medium (40%) MST power, Monolith NT.115; conditions: both partners purified
T5 construct: source: purified using a Ni-NTA resin column
T5 sequence: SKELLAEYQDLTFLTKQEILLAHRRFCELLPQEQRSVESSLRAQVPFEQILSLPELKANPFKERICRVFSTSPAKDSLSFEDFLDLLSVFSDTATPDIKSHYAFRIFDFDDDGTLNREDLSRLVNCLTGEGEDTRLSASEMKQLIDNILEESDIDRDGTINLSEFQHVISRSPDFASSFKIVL

[8] = molecular target: T6, F-scrambled αIIb-peptide (FITC-labeled scrambled control peptide); conditions: both partners purified
T6 construct: scrambled order of the αIIb peptide's residues; also called labeled scrambled-peptide; scrambled peptide; source: synthetic peptide (custom synthesized, Peptide 2.0, purity 95.37%)
T6 peptide: Ac-RKLFVKVMFWRLNGAK-{FITC″}

[9] = molecular target: B1; conditions: both partners purified
[10] = molecular target: B2; experiment: fluorescence polarisation; competition, 384-well plate; GST-CIB1 1 or 2 μM, F-αIIb 50 nM, unlabeled αIIb peptide 16-point 1:2 dilution (3.05 nM to 100 μM), points >25 μM excluded; room temperature, 1 h; conditions: both partners purified
[11] = molecular target: B2; conditions: both partners purified

O=C(c1ccc(-c2ccccc2)cc1)c1no[n+]([O-])c1C(=O)c1ccc(-c2ccccc2)cc1 [NCGC00351154-01]
EC50 ([1]; 200 nM F-αIIb, 4 μM CIB1-(His)6, n = 3/concentration): 29 µM | difference between the two compounds (EC50) ([1]; NCGC00351154 vs NCGC00351170): 13.8 fold | Kd (CIB1-(His)6; MST, fluorescently labeled CIB1-(His)6 50 nM, read-out: equilibrium dissociation constant (Kd)): 6.7 µM | difference in binding affinity (CIB1-(His)6; NCGC00351154 vs NCGC00351170 Kd): 2.3 fold | solubility [2]: 1 µg/mL (≈ 2.24 µM) | Papp [3]: < 3 ×10⁻⁶ cm/s | activity in the qHTS assay [4]: inactive | inhibition at 10 µM (washed human platelets): 16% | Thrombin Assay 10 µM (%) (washed human platelets): 16%

O=C(c1ccccc1C(F)(F)F)c1no[n+]([O-])c1C(=O)c1ccccc1C(F)(F)F [NCGC00351167-01]
solubility [2]: < 1 µg/mL | Papp [3]: < 12.4 ×10⁻⁶ cm/s | half-life [5]: 2.34 min | inhibition at 10 µM (washed human platelets): 84% | Thrombin Assay 10 µM (%) (washed human platelets): 84% | IC50 ([6]; 384-well FP assay, Table 1, read-out: FP assay IC50): 6.68 µM

Ac-LVLAMWKVGFFKRNRK [unlabeled αIIb peptide, reference compound]
IC50 [7]: 11.2 µM | IC50 ([6]; 384-well, F-αIIb 50 nM, GST-CIB1 1 or 2 μM, RT 1 h, read-out: IC50): ~2.7 µM and ~3 µM

B1
Kd (CIB1-(His)6 protein): 2.6 µM

B2
EC50 [8]: 1.6 µM | EC50 [9]: ~0.2 µM

B3: unlabeled αIIb peptide (peptide)
peptide: Ac-LVLAMWKVGFFKRNRK
notes: integrin αIIb, stretch at the start of the cytoplasmic domain; last printed residue of the peptide; also called unlabeled peptide; source: synthetic peptide (custom synthesized, Peptide 2.0, purity >95.00%)
IC50 [10]: ~2.7 µM | IC50 [11]: ~12 µM and 8.6 µM
